{"source": "patent US20150183802A1", "about": "“TRICYCLIC SULFONAMIDE DERIVATIVES” (NOVARTIS AG, priority 2013, published 2015)"}
{"biological_target": "T1, hNav1.7 channels (Homo sapiens, UniProt Q15858)", "T1 construct": "host or cells: HEK293", "T1 sequence (Q15858 whole entry)": "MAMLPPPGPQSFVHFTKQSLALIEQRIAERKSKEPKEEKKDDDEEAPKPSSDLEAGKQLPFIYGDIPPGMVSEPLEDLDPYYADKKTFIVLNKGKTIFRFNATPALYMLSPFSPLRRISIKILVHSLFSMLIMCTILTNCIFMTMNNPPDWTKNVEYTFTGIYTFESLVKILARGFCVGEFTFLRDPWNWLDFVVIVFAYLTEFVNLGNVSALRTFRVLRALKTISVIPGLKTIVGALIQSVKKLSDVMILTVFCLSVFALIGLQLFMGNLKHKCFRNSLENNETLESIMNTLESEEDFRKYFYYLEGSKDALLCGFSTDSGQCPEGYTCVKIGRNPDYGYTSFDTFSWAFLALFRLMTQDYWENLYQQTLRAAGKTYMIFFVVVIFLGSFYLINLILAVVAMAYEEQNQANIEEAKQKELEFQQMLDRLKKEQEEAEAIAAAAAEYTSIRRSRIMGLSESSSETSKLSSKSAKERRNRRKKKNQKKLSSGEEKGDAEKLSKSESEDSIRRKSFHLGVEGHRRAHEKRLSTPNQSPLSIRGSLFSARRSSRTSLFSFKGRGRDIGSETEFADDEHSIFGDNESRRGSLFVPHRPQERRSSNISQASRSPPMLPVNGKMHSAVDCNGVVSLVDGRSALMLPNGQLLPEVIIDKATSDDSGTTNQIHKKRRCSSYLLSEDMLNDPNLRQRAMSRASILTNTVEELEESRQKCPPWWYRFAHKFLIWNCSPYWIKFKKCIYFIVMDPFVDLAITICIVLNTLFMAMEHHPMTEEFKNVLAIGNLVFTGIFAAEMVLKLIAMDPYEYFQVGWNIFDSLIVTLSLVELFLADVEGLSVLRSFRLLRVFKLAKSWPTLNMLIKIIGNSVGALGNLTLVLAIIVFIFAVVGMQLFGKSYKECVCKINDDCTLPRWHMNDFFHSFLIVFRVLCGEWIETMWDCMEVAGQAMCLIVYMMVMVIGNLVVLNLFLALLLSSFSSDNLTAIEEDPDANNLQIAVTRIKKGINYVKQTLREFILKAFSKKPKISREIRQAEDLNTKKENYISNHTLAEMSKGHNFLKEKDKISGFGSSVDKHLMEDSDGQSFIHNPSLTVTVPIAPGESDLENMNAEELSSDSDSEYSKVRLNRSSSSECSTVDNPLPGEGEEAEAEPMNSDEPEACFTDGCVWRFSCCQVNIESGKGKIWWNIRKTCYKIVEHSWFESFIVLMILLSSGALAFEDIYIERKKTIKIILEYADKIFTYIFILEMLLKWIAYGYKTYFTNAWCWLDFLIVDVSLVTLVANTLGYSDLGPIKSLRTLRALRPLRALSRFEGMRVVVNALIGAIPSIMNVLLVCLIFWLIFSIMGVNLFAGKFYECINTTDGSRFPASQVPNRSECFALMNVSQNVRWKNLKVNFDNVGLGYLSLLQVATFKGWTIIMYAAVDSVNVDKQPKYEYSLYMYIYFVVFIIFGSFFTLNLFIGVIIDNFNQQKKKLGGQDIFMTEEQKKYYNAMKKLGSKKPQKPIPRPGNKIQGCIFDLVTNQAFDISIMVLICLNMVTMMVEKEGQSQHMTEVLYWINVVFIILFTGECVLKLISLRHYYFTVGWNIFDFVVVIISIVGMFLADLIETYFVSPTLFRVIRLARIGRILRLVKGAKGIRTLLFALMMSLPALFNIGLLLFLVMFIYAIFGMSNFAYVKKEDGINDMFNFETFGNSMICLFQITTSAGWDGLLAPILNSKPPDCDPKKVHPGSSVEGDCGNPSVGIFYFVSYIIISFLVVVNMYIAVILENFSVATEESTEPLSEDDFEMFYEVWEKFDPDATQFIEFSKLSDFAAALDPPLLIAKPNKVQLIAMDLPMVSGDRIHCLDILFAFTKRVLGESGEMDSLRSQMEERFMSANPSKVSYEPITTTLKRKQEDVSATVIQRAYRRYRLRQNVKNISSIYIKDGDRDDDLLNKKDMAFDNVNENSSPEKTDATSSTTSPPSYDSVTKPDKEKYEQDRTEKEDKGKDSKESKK", "test": "hNav1.7 channel in vitro patch-clamp assay", "assay_type": "cell-based", "conditions": "stable HEK293 cell line expressing hNav1.7; whole cell patch-clamp", "description": "(§1) hNav1.7 Channel In Vitro Patch-Clamp Assay\n(§2) Cells: Sable HEK293 (human embryonic kidney) cell line expressing hNav1.7 channels was used in the assay. The cell line was obtained from Millipore (Millipore Corporation, MA).\n(§3) Patch-clamp recordings: The recordings were performed on QPatch HTX (Sophion Bioscience, Denmark) and/or conventional patch-clamp (Axon Multiclamp 700B systems, Molecular Devices, CA) platforms at room temperature, using whole cell patch-clamp techniques. The composition of extracellular solution was (in mM): HEPES 5, NaCl 40, KCl 3, CaCl2 1, MgCl2 1, Choline Chloride 100. Adjust pH to 7.2 with 1N NaOH, osmolarity to 300-310 mOsm with sucrose. The composition of intracellular solution was (in mM): HEPES 10, NaCl 10, Na2ATP 1, MgCl2 2, KF 135, EGTA 10. Adjust pH to 7.2 with 1N NaOH, osmolarity to 290-300 mOsm with sucrose.\n(§4) For conventional patch-clamp, 35 mm culture dishes containing hNav1.7 cells were placed on the stage of an inverted microscope and continuously perfused with extracellular solution from a perfusion system (Biologic Rapid solution changer, RSC-160, ˜1 ml/min). […] The recordings were controlled by pCLAMP10 software. Test compounds were dissolved in 100% DMSO to make stock solutions for each test concentration, and then diluted into extracellular solution to achieve final concentration for testing. Final DMSO concentration was less than 0.3%. Two voltage protocols were used in hNav1.7 assay: for non-inactivated protocol, the sodium currents were elicited by a 2 ms pulse to −10 mV from a holding potential of −110 mV. For inactivated protocol, the holding potential was set at V1/2. The voltage was firstly stepped to −110 mV for 50 ms, then to −10 mV for 2 ms and then stepped back to holding potential. In both protocols the voltage command was given in every 10 s. Compound effect (% inhibition) was determined by difference in current amplitude before and after the application of test compounds. IC50 values were determined from concentration-response curves that were obtained with Hill fitting.\n(§5) For QPatch HTX assay, hNav1.7 cells grown to 50%-80% confluence were rinsed with DPBS and dissociated with Tryple (Invitrogen, 12605-010). The dissociated cells were then mixed with extracellular solution. After centrifuge, the cells were resuspended in extracellular solution and used in the QPatch experiment. The whole-cell protocols, voltage protocols and application protocols were established with QPatch Assay Software 3.4 (Sophion Bioscience, Denmark). Only the inactivated protocol was used in the QPatch assay."}
{"smiles": "CC(C)COc1ncc(N2C(=O)C3(CC3)c3cc4c(NS(=O)(=O)N5CCC5)noc4cc32)cc1Cl", "note": "[N-(7′-(5-chloro-6-isobutoxypyridin-3-yl)-6′-oxo-6′,7′-dihydrospiro[cyclopropane-1,5′-isoxazolo[4,5-f]indol]-3′-yl)azetidine-1-sulfonamide]", "activity in the hNav1.7 patch-clamp assay (in words)": "did not show any activity"}
{"biological_target": "T1, hNav1.7 channels", "test": "hNav1.7 channel in vitro patch-clamp assay", "assay_type": "cell-based", "conditions": "stable HEK293 cell line expressing hNav1.7; whole cell patch-clamp (QPatch HTX and/or conventional), room temperature; voltage protocol not given", "description": "as §1, §2, §3, §4, §5", "units": {"IC50": "nM"}}
{"smiles": "CC(C)COc1ncc(-n2cc(C(N)=O)c3cc4c(NS(=O)(=O)C5CC5)noc4cc32)cc1Cl", "note": "[Example 49, 7-(5-chloro-6-isobutoxypyridin-3-yl)-3-(cyclopropanesulfonamido)-7H-isoxazolo[4,5-f]indole-5-carboxamide]", "IC50": 1180}
{"smiles": "CC(C)COc1ncc(-c2nccc3cc4c(NS(=O)(=O)C5CC5)noc4cc23)cc1Cl", "note": "[Example 50, N-(8-(5-chloro-6-isobutoxypyridin-3-yl)isoxazolo[4,5-g]isoquinolin-3-yl)cyclopropanesulfonamide]", "IC50": 110}
{"smiles": "CC(C)COc1ncc(-c2nccc3cc4c(NS(C)(=O)=O)noc4cc23)cc1Cl", "note": "[Example 51, N-(8-(5-chloro-6-isobutoxypyridin-3-yl)isoxazolo[4,5-g]isoquinolin-3-yl)methanesulfonamide]", "IC50": 300}
{"smiles": "O=S(=O)(Nc1noc2cc3c(-c4ccc(Cl)c(Cl)c4)nccc3cc12)C1CC1", "note": "[Example 52]", "IC50": 800}
{"smiles": "CC(C)COc1ncc(-c2nccc3cc4c(NS(=O)(=O)N(C)C)noc4cc23)cc1Cl", "note": "[Example 53, N-(8-(5-chloro-6-isobutoxypyridin-3-yl)isoxazolo[4,5-g]isoquinolin-3-yl)N—N-dimethylsulfamide]", "IC50": 1070}
{"smiles": "CC(C)COc1ncc(-c2ccnc3cc4c(NS(=O)(=O)C5CC5)noc4cc23)cc1Cl", "note": "[Example 55, N-(8-(5-chloro-6-isobutoxypyridin-3-yl)isoxazolo[5,4-g]quinolin-3-yl)cyclopropanesulfonamide]", "IC50": 850}
{"smiles": "CC(C)COc1ncc(-c2cncc3cc4c(NS(C)(=O)=O)noc4cc23)cc1Cl", "note": "[Example 57, N-(8-(5-chloro-6-isobutoxypyridin-3-yl)isoxazolo[5,4-g]isoquinolin-3-yl)methanesulfonamide]", "IC50": 2360}
{"smiles": "CC(C)COc1ncc(-c2cccc3cc4c(NS(=O)(=O)C5CC5)noc4cc23)cc1Cl", "note": "[Example 58, N-(8-(5-chloro-6-isobutoxypyridin-3-yl)naphtho[2,3-d]isoxazol-3-yl)cyclopropanesulfonamide]", "IC50": 10}
{"smiles": "Cc1cnc(-c2cnc(OCC(C)C)c(Cl)c2)c2cc3onc(NS(=O)(=O)C4CC4)c3cc12", "note": "[Example 60, N-(8-(5-chloro-6-isobutoxypyridin-3-yl)-5-methylisoxazolo[4,5-g]isoquinolin-3-yl)cyclopropanesulfonamide]", "IC50": 1870}
{"smiles": "Cc1cc2cc3c(NS(=O)(=O)C4CC4)noc3cc2c(-c2cnc(OCC(C)C)c(Cl)c2)n1", "note": "[Example 61, N-(8-(5-chloro-6-isobutoxypyridin-3-yl)-6-methylisoxazolo[4,5-g]isoquinolin-3-yl)cyclopropanesulfonamide]", "IC50": 510}
{"smiles": "CC(C)COc1ncc(N2C(=O)C3(CC3)Oc3cc4c(NS(=O)(=O)C5CC5)noc4cc32)cc1Cl", "note": "[Example 62, N-(8′-(5-chloro-6-isobutoxypyridin-3-yl)-7′-oxo-7′,8′-dihydrospiro[cyclopropane-1,6′-isoxazolo[5′,4′:4,5]benzo[1,2-b][1,4]oxazin]-3′-yl)cyclopropanesulfonamide]", "IC50": 100}
{"smiles": "CC(C)COc1ncc(N2CCOc3cc4c(NS(C)(=O)=O)noc4cc32)cc1Cl", "note": "[Example 63, N-(8-(5-chloro-6-isobutoxypyridin-3-yl)-7,8-dihydro-6H-isoxazolo[5′,4′:4,5]benzo[1,2-b][1,4]oxazin-3-yl)methanesulfonamide]", "IC50": 530}
